Like-named read-outs stand apart in the source and are kept apart here.
Columns and labels:
[1] = molecular target: RLuc8-KRasG12V / GFP-CRAF RBD interaction in HEK293T cells (Homo sapiens, UniProt P01116, G12V); assay: Intracellular Ras-Raf BRET2 assay; assay type: cell-based; settings: 0–15 μM, 20 h
H358 cells [2] = settings: read-out: CellTiter-Glo EC50, 96 h, 10% FBS, mean ± SD
H358 cells [3] = assay: MTT cell viability assay; assay type: cell-based, human; settings: read-out: MTT EC50, 96 h, 10% FBS, mean ± SD
[4] = molecular target: RLuc8-KRasG12D / GFP-CRAF RBD interaction in HEK293T cells (Homo sapiens, UniProt P01116, G12D); assay: Intracellular Ras-Raf BRET2 assay; assay type: cell-based; settings: 0–15 μM, 20 h

ΦOSQΦΠ-K-fArR-J-BBK-NH2 [Peptide B3-4]
effect on BRET signal (KRasG12V-CRAF RBD) [1]: did not decrease the BRET signal
EC50 (H358 cells [2]): 22 ± 4 µM
EC50 (H358 cells [3]): 29 ± 6 µM
effect on BRET signal (KRasG12D-CRAF RBD) [4]: did not decrease the BRET signal
